Laboratory results from PubChem BioAssay (NCI).
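Values below derive from 48-hour exposures of cells grown in 96-well plates, with endpoints linearly interpolated between the two concentrations bracketing the appropriate inhibition level. TGI denotes the concentration required for complete inhibition of growth.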

Columns and labels:
Experiment in all cases: NCI-60 cell line screen, 48 h
[1] = tested on: HL-60(TB) leukemia
[2] = tested on: NCI-H23 lung
[3] = tested on: SK-MEL-2 melanoma
[4] = tested on: M14 melanoma
[5] = tested on: HCC-2998 colon
[6] = tested on: SR leukemia
[7] = tested on: SK-MEL-28 melanoma
[8] = tested on: MDA-MB-435
[9] = tested on: SF-539 CNS
[10] = tested on: T-47D breast
[11] = tested on: RXF 393 renal
[12] = tested on: NCI-H226 lung
[13] = tested on: SF-295 CNS
[14] = tested on: CAKI-1 renal
[15] = tested on: OVCAR-3 ovarian
[16] = tested on: HCT-116 colon
[17] = tested on: PC-3 prostate
[18] = tested on: COLO 205 colon
[19] = tested on: NCI/ADR-RES ovarian
[20] = tested on: SNB-19 CNS

Compound | TGI [1] [µM] | TGI [2] [µM] | TGI [3] [µM] | TGI [4] [µM] | TGI [5] [µM] | TGI [6] [µM] | TGI [7] [µM] | TGI [8] [µM] | TGI [9] [µM] | TGI [10] [µM] | TGI [11] [µM] | TGI [12] [µM] | TGI [13] [µM] | TGI [14] [µM] | TGI [15] [µM] | TGI [16] [µM] | TGI [17] [µM] | TGI [18] [µM] | TGI [19] [µM] | TGI [20] [µM]
COC(C)(C)OCCN1CCN(CCN2C3=C(C=C(C(C)=O)C3)Sc3ccccc32)CC1 | 35.8 | 73.5 | 41.4 | 40.4 | 36.2 | 33.2 | 32.9 | 30.9 | 39.8 | > 100 | 42.2 | 65.6 | 36.7 | 48.2 | 45.8 | 33.6 | 72.9 | 33.4 | 50.2 | 93.3
CN(C)/N=C1/CCC(C(F)(F)F)(C(F)(F)F)O1 | 54.8 | 98.4 | 90.6 | 68.1 | > 100 | > 100 | > 100 | 76 | > 100 | > 100 | > 100 | 84 | > 100 | > 100 | 50.7 | 94 | > 100 | 31.2 | 69.6 | > 100
CC1C=CN(N(C)C)C2=C1C(=O)c1cnccc1C2=O (stereo not given) | 4.66 | 0.823 | 4.02 | 1.62 | 1.8 | 0.196 | 2.07 | 0.43 | 1.26 | 4.33 | 1.46 | 2.14 | 2.18 | 0.597 | 2.37 | 1.48 | 7.89 | 2.45 | 4.09 | 2.31
